These compounds were tested against Plk1 (Homo sapiens, UniProt P53350) (assay: biochemical).
Sequence of Plk1 (P53350 20-338): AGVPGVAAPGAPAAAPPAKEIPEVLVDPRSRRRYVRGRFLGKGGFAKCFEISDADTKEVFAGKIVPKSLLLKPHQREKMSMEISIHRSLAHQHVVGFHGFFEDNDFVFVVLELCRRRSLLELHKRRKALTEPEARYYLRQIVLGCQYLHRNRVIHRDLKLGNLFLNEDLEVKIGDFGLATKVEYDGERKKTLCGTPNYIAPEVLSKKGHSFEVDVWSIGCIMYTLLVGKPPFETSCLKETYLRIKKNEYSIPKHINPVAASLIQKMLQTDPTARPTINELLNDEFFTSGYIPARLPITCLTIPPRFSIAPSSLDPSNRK
With CNC(=O)c1ccc(Nc2ncc3c(n2)N([C@@H]2CCCN(C)C2)CC(C)(C)C(=O)N3C)c(OC)c1 [Compound I-96, 4-(6,7,8,9-tetrahydro-5,7,7-trimethyl-9-((R)-1-methylpiperidine-3-yl)-6-oxo-5H-pyrimido[4,5-b][1,4]diazepin-2-ylamino)-3-methoxy-N-methylbenzamide] the Ki was < 10 nM.
COc1cc(C(=O)N2CC(OC)C2)ccc1Nc1ncc2c(n1)N(C1CCCC1)CC(C)(C)C(=O)N2C [Compound I-220, 9-cyclopentyl-2-(2-methoxy-4-(3-methoxyazetidine-1-carbonyl)phenylamino)-5,7,7-trimethyl-8,9-dihydro-5H-pyrimido[4,5-b][1,4]diazepin-6(7H)-one] was tested, and the Ki was < 10 nM.
In the case of COc1cc(C(=O)N[C@@H]2CC[C@@H](O)C2)ccc1Nc1ncc2c(n1)N(C1CCCC1)CC(C)(C)C(=O)N2C [Compound I-258], the Ki is reported as < 10 nM.
CC(=O)Nc1ccc(C)c(Nc2ncc3c(n2)N(C2CCCC2)CC(C)(C)C(=O)N3C)c1 [Compound I-163, N-(3-(9-cyclopentyl-6,7,8,9-tetrahydro-5,7,7-trimethyl-6-oxo-5H-pyrimido[4,5-b][1,4]diazepin-2-ylamino)-4-methylphenyl)acetamide] was tested, and the Ki was < 10 nM.
COc1cc(C(=O)NCC#N)ccc1Nc1ncc2c(n1)N(C1CCCC1)CC(C)(C)C(=O)N2C [Compound I-233, N-(cyanomethyl)-4-(9-cyclopentyl-5,7,7-trimethyl-6-oxo-6,7,8,9-tetrahydro-5H-pyrimido[4,5-b][1,4]diazepin-2-ylamino)-3-methoxybenzamide] was tested, and the Ki was < 10 nM.
Work on Cc1cc(O)n(-c2ccc(Nc3ncc4c(n3)N(C3CCCC3)CC(C)(C)C(=O)N4C)cc2)n1 [Compound I-98, 2-(4-(5-hydroxy-3-methyl-1H-pyrazol-1-yl)phenylamino)-9-cyclopentyl-8,9-dihydro-5,7,7-trimethyl-5H-pyrimido[4,5-b][1,4]diazepin-6(7H)-one] yielded a Ki of 10 to 100 nM.
For CN1C(=O)C(C)(C)CN(C2CCCC2)c2nc(Nc3ccc4cn[nH]c4c3)ncc21 [Compound I-47, 2-(1H-indazo-6-ylamino)-9-cyclopentyl-8,9-dihydro-5,7,7-trimethyl-5H-pyrimido[4,5-b][1,4]diazepin-6(7H)-one], the Ki was < 10 nM.
In the case of COc1cc(C(=O)NC2CCN(C)CC2)ccc1Nc1ncc2c(n1)N(C1CCCC1)CC1(CCC1)C(=O)N2C [Compound I-64, 4-(9′-cyclopentyl-5′-methyl-6′-oxo-5′,6′,8′,9′-tetrahydrospiro[cyclobutane-1,7′-pyrimido[4,5-b][1,4]diazepine]-2′-ylamino)-3-methoxy-N-(1-methylpiperidin-4-yl)benzamide], the Ki is reported as < 10 nM.
CNC(=O)c1ccc(Nc2ncc3c(n2)N(CC(F)(F)C(F)(F)F)CC(C)(C)C(=O)N3C)c(OC)c1 [Compound I-160, 4-(9-(2,2,3,3,3-pentafluoropropyl)-6,7,8,9-tetrahydro-5,7,7-trimethyl-6-oxo-5H-pyrimido[4,5-b][1,4]diazepin-2-ylamino)-3-methoxy-N-methylbenzamide] gave a Ki of 10 to 100 nM.
In the case of COc1cc(C(=O)NC[C@@H]2CCCC[C@H]2O)ccc1Nc1ncc2c(n1)N(C1CCCC1)CC(C)(C)C(=O)N2C [Compound I-229, 4-(9-cyclopentyl-5,7,7-trimethyl-6-oxo-6,7,8,9-tetrahydro-5H-pyrimido[4,5-b][1,4]diazepin-2-ylamino)-N-(((1S,2R)-2-hydroxycyclohexyl)methyl)-3-methoxybenzamide], the Ki is reported as < 10 nM.
COCCNC(=O)c1cccc(Nc2ncc3c(n2)N(C2CCCC2)CC(C)(C)C(=O)N3C)c1 [Compound I-144, 3-(9-Cyclopentyl-6,7,8,9-tetrahydro-5,7,7-trimethyl-6-oxo-5H-pyrimido[4,5-b][1,4]diazepin-2-ylamino)-N-(2-methoxyethyl)benzamide] was tested, and the Ki was 10 to 100 nM.
For COc1cc(C(=O)NC(C)(C)C)ccc1Nc1ncc2c(n1)N(C1CCCC1)CC(C)(C)C(=O)N2C [Compound I-130, 4-(9-cyclopentyl-6,7,8,9-tetrahydro-5,7,7-trimethyl-6-oxo-5H-pyrimido[4,5-b][1,4]diazepin-2-ylamino)-N-tert-butyl-3-methoxybenzamide], the Ki was < 10 nM.
For COc1cc(C(=O)N[C@H]2CCOC2)ccc1Nc1ncc2c(n1)N(C1CCCC1)C[C@@H](C)C(=O)N2C [Compound I-183, 4-((R)-9-cyclopentyl-5,7-dimethyl-6-oxo-6,7,8,9-tetrahydro-5H-pyrimido[4,5-b][1,4]diazepin-2-ylamino)-3-methoxy-N—((S)-tetrahydrofuran-3-yl)benzamide], the Ki was < 10 nM.
CNC(=O)c1ccc(Nc2ncc3c(n2)N([C@H]2CCOC2)CC(C)(C)C(=O)N3C)c(OC)c1 [Compound I-180, 4-(6,7,8,9-tetrahydro-9-((S)-tetrahydrofuran-3-yl)-5,7,7-trimethyl-6-oxo-5H-pyrimido[4,5-b][1,4]diazepin-2-ylamino)-3-methoxy-N-methylbenzamide] was tested, and the Ki was < 10 nM.
In the case of COc1cc(C(=O)N[C@H]2CC[C@H](O)CC2)ccc1Nc1ncc2c(n1)N(C1CCCC1)CC1(CC1)C(=O)N2C [Compound I-251, 4-(9′-cyclopentyl-5′-methyl-6′-oxo-5′,6′,8′,9′-tetrahydrospiro[cyclopropane-1,7′-pyrimido[4,5-b][1,4]diazepine]-2′-ylamino)-N-((1R,4R)-4-hydroxycyclohexyl)-3-methoxybenzamide], the Ki is reported as < 10 nM.
CCOc1cc(C(=O)NC2CCN(C)CC2)ccc1Nc1ncc2c(n1)N(C1CCCC1)CC(C)(C)C(=O)N2C [Compound I-74, 4-(9-cyclopentyl-6,7,8,9-tetrahydro-5,7,7-trimethyl-6-oxo-5H-pyrimido[4,5-b][1,4]diazepin-2-ylamino)-3-ethoxy-N-(1-methylpiperidin-4-yl)benzamide] was tested, and the Ki was < 10 nM.
CN1C(=O)C(C)(C)CN(C2CCCC2)c2nc(Nc3cccc(NC(=O)C4CCC4)c3)ncc21 [Compound I-151, N-(3-(9-cyclopentyl-6,7,8,9-tetrahydro-5,7,7-trimethyl-6-oxo-5H-pyrimido[4,5-b][1,4]diazepin-2-ylamino)phenyl)cyclobutanecarboxamide] gave a Ki of 10 to 100 nM.
With COc1cc(C(=O)NC2CCNCC2)ccc1Nc1ncc2c(n1)N(C1CCCC1)CC(C)(C)C(=O)N2C [Compound I-101] the Ki was < 10 nM.
COc1cc(C(=O)NCCCO)ccc1Nc1ncc2c(n1)N(C1CCCC1)CC1(CC1)C(=O)N2C [Compound I-262, 4-(9′-cyclopentyl-5′-methyl-6′-oxo-5′,6′,8′,9′-tetrahydrospiro[cyclopropane-1,7′-pyrimido[4,5-b][1,4]diazepine]-2′-ylamino)-N-(3-hydroxypropyl)-3-methoxybenzamide] was tested, and the Ki was < 10 nM.
With COc1cc(C(=O)Nc2cccnc2OC)ccc1Nc1ncc2c(n1)N(C1CCCC1)CC(C)(C)C(=O)N2C [Compound I-228, 4-(9-cyclopentyl-5,7,7-trimethyl-6-oxo-6,7,8,9-tetrahydro-5H-pyrimido[4,5-b][1,4]diazepin-2-ylamino)-3-methoxy-N-(2-methoxypyridin-3-yl)benzamide] the Ki was < 10 nM.
CN1C(=O)C(C)(C)CN(C2CCCC2)c2nc(Nc3ccc(-n4cncn4)cc3)ncc21 [Compound I-49, 2-(4-(1H-1,2,4-triazol-1-yl)phenylamino)-9-cyclopentyl-8,9-dihydro-5,7,7-trimethyl-5H-pyrimido[4,5-b][1,4]diazepin-6(7H)-one] was tested, and the Ki was 10 to 100 nM.
With COc1cc(C(=O)N[C@H]2CCN(C(C)C)C2)ccc1Nc1ncc2c(n1)N(C1CCCC1)CC(C)(C)C(=O)N2C [Compound I-73, 4-(9-cyclopentyl-6,7,8,9-tetrahydro-5,7,7-trimethyl-6-oxo-5H-pyrimido[4,5-b][1,4]diazepin-2-ylamino)-N—((S)-1-isoipropylpyrrolidin-3-yl)-3-methoxybenzamide] the Ki was < 10 nM.
For COc1cc(C(=O)NCc2ccco2)ccc1Nc1ncc2c(n1)N(C1CCCC1)CC(C)(C)C(=O)N2C [Compound I-193, 4-(9-cyclopentyl-5,7,7-trimethyl-6-oxo-6,7,8,9-tetrahydro-5H-pyrimido[4,5-b][1,4]diazepin-2-ylamino)-N-(furan-2-ylmethyl)-3-methoxybenzamide], the Ki was < 10 nM.
In the case of COc1cc(C(=O)NN2CCCC2)ccc1Nc1ncc2c(n1)N(C1CCCC1)CC(C)(C)C(=O)N2C [Compound I-206, 4-(9-cyclopentyl-5,7,7-trimethyl-6-oxo-6,7,8,9-tetrahydro-5H-pyrimido[4,5-b][1,4]diazepin-2-ylamino)-3-methoxy-N-(pyrrolidin-1-yl)benzamide], the Ki is reported as < 10 nM.
In the case of COc1cc(C(=O)NCC2CCCC2)ccc1Nc1ncc2c(n1)N(C1CCCC1)CC(C)(C)C(=O)N2C [Compound I-230, 4-(9-cyclopentyl-5,7,7-trimethyl-6-oxo-6,7,8,9-tetrahydro-5H-pyrimido[4,5-b][1,4]diazepin-2-ylamino)-N-(cyclopentylmethyl)-3-methoxybenzamide], the Ki is reported as < 10 nM.
COc1cc(C(=O)Nc2ccncc2)ccc1Nc1ncc2c(n1)N(C1CCCC1)CC(C)(C)C(=O)N2C [Compound I-24, 4-(9-cyclopentyl-6,7,8,9-tetrahydro-5,7,7-trimethyl-6-oxo-5H-pyrimido[4,5-b][1,4]diazepin-2-ylamino)-3-methoxy-N-(pyridin-4-yl)benzamide] was tested, and the Ki was < 10 nM.
For COc1cc(C(=O)NCCCOC(C)=O)ccc1Nc1ncc2c(n1)N(C1CCCC1)CC(C)(C)C(=O)N2C [Compound I-273, 3-(4-(9-cyclopentyl-5,7,7-trimethyl-6-oxo-6,7,8,9-tetrahydro-5H-pyrimido[4,5-b][1,4]diazepin-2-ylamino)-3-methoxybenzamido)propyl acetate], the Ki was < 10 nM.
CN1C(=O)C(C)(C)CN(C2CCCC2)c2nc(Nc3ccc4c(cnn4C)c3)ncc21 [Compound I-110, 2-(1-methyl-1H-indazol-5-ylamino)-9-cyclopentyl-8,9-dihydro-5,7,7-trimethyl-5H-pyrimido[4,5-b][1,4]diazepin-6(7H)-one] showed a Ki of 10 to 100 nM.
With COc1cc(C(=O)NCC2(O)CCCCC2)ccc1Nc1ncc2c(n1)N(C1CCCC1)CC(C)(C)C(=O)N2C [Compound I-205, 4-(9-cyclopentyl-5,7,7-trimethyl-6-oxo-6,7,8,9-tetrahydro-5H-pyrimido[4,5-b][1,4]diazepin-2-ylamino)-N-((1-hydroxycyclohexyl)methyl)-3-methoxy-benzamide] the Ki was < 10 nM.

From patent publication US8394952B2 (Vertex Pharmaceuticals Incorporated, priority 2006, dated 2013)
